Source: patent publication US9556201B2, “Bicyclic pyridines and analogs as sirtuin modulators” (GLAXOSMITHKLINE LLC, priority 2009, dated 2017)

Experiments:
TNF = TNF IC50 (column of Table 1; method not shown); type: cell-based
SIRT1 = biological target: T1, SIRT1 (Homo sapiens, UniProt Q96EB6); assay: Mass spectrometry based assay to identify modulators of SIRT1 activity (deacetylation of p53-based acetylated peptide substrate); type: biochemical; details: for Emax: 25 min, read-out: % FOLD ACT. (percent maximum fold activation); for Emax / EC1.5: SIRT1 activation
T1 sequence (Q96EB6 1-747): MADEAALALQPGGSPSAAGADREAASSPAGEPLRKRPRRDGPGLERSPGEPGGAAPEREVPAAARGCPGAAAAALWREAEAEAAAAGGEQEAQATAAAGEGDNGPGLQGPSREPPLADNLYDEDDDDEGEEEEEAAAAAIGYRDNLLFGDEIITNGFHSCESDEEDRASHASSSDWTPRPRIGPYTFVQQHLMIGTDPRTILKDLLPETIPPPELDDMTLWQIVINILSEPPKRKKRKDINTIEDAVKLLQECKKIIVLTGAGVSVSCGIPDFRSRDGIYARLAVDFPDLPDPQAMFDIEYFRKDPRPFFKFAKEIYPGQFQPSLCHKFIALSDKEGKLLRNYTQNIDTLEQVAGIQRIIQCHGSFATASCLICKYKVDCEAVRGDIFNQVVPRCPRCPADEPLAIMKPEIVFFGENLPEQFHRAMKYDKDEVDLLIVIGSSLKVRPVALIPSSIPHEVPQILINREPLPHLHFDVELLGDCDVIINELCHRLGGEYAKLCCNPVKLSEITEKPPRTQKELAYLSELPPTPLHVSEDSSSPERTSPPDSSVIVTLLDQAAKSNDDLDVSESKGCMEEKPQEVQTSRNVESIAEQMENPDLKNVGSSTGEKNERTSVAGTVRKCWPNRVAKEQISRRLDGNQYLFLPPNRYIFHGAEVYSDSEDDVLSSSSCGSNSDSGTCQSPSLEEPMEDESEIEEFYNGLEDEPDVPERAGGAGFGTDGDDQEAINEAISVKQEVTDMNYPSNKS
Procedure, shortened: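 His-tagged human SIRT1 (10 nM, E. coli) incubated 25 min at 25 °C with […] p53-derived acetylated 5TMR peptide and 120 μM βNAD+ in pH 8 Tris-acetate buffer, then formic acid-stopped. Mass spectrometry quantifies acetylated vs deacetylated peptide; nicotinamide and DMSO controls.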

IC50 (TNF) [µM] | Emax (SIRT1) [%] | EC1.5 (SIRT1) | EC1.5 (concentration giving 1.5-fold activation) (SIRT1) [µM] | SMILES
≥ 20 | > 200 | A (EC1.5<1.0 μM) | – | Cc1cc(NC(=O)N2CC(C)(C)Oc3ccc(-c4cccc(F)c4)nc32)cc(C)n1 [Compound 592]
< 20 | > 200 | A (EC1.5<1.0 μM) | – | Cc1cc(-c2cccc(C(F)(F)F)c2)nc2c1OCCN2C(=O)Nc1ccncc1 [Compound 662]
≥ 20 | ≤ 200 | A (EC1.5<1.0 μM) | – | Cc1csc(NC(=O)N2CC(C)(C)Oc3ccc(-c4cccc(N5CCCC5)c4)nc32)n1 [Compound 606]
< 20 | > 200 | A (EC1.5<1.0 μM) | – | Cc1cc(NC(=O)N2CCCc3ccc(-c4cccc(C(F)(F)F)c4)nc32)cc(C)n1 [Compound 587]
< 20 | > 200 | A (EC1.5<1.0 μM) | – | Cc1cc(NC(=O)N2CCCOc3ccc(-c4cccc(Cl)c4)nc32)cc(C)n1 [Compound 626]
≥ 20 | > 200 | A (EC1.5<1.0 μM) | – | O=C(Nc1ccnc(N2CCCC2)c1)N1CCOc2ccc(-c3cccc(C(F)(F)F)c3)nc21 [Compound 508]
< 20 | > 200 | A (EC1.5<1.0 μM) | – | Cc1cc(NC(=O)N2CCOc3ccc(-c4cccc(C(F)(F)F)c4)nc32)cc(C)n1 [Compound 556]
≥ 20 | > 200 | A (EC1.5<1.0 μM) | – | Cc1cc(NC(=O)N2CCOc3ccc(-c4cccc(C(F)(F)F)c4)nc32)ccn1 [Compound 548]
< 20 | > 200 | A (EC1.5<1.0 μM) | – | Cc1csc(NC(=O)N2CCCc3ccc(-c4cccc(F)c4)nc32)n1 [Compound 620]
≥ 20 | > 200 | A (EC1.5<1.0 μM) | – | O=C(Nc1cccc(N2CCOCC2)n1)N1CCOc2ccc(-c3cccc(C(F)(F)F)c3)nc21 [Compound 506, N-(6-morpholinopyridin-2-yl)-6-(3-(trifluoromethyl)phenyl)-2H-pyrido[3,2-b][1,4]oxazine-4(3H)-carboxamide]
≥ 20 | > 200 | A (EC1.5<1.0 μM) | – | Cc1cc(-c2cccc(C(F)(F)F)c2)nc2c1OCCN2C(=O)Nc1ccnc(N2CCC2)c1 [Compound 683]
< 20 | > 200 | A (EC1.5<1.0 μM) | – | Cc1cncc(NC(=O)N2CCOc3ccc(-c4cccc(N5CCCC5)c4)nc32)c1 [Compound 644]
≥ 20 | > 200 | A (EC1.5<1.0 μM) | – | CN(C)c1cccc(-c2ccc3c(n2)N(C(=O)Nc2cncc(F)c2)CC(C)(C)O3)c1 [Compound 623]
≥ 20 | > 200 | A (EC1.5<1.0 μM) | – | Cc1cncc(NC(=O)N2CCOc3ccc(-c4cccc(C(F)(F)F)c4)nc32)c1 [Compound 551]
≥ 20 | > 200 | A (EC1.5<1.0 μM) | – | O=C(Nc1cccc(OC[C@H](O)CO)n1)N1CCCc2ccc(-c3cccc(C(F)(F)F)c3)nc21 [Compound 678]
< 20 | > 200 | A (EC1.5<1.0 μM) | – | Cc1cc(NC(=O)N2CC(C)(C)Oc3ccc(-c4cccc(N5CCOCC5)c4)nc32)cc(C)n1 [Compound 659]
< 20 | > 200 | A (EC1.5<1.0 μM) | – | CN1CCN(C(=O)Nc2cccc(CN3CCOCC3)n2)c2nc(-c3cccc(C(F)(F)F)c3)ccc21 [Compound 539]
≥ 20 | > 200 | A (EC1.5<1.0 μM) | – | Cc1csc(NC(=O)N2CCOc3c(C)cc(-c4cccc(Cl)c4)nc32)n1 [Compound 684]
≥ 20 | > 200 | A (EC1.5<1.0 μM) | – | O=C(Nc1cccnc1)N1CCCc2ccc(-c3cccc(Cl)c3)nc21 [Compound 653]
≥ 20 | > 200 | A (EC1.5<1.0 μM) | – | Cc1cc(C)nc(NC(=O)N2CCCc3ccc(-c4cccc(C(F)(F)F)c4)nc32)c1 [Compound 647]
< 20 | > 200 | A (EC1.5<1.0 μM) | – | O=C(Nc1ccncc1)N1CCOc2ccc(-c3cccc(C(F)(F)F)c3)nc21 [Compound 501]
< 20 | > 200 | A (EC1.5<1.0 μM) | – | O=C(Nc1ccnc(N2CCC2)c1)N1CCCc2ccc(-c3cccc(F)c3)nc21 [Compound 596]

IC50 (TNF) [µM] | Emax (SIRT1) [%] | EC1.5 (SIRT1) | EC1.5 (concentration giving 1.5-fold activation) (SIRT1) [µM] | SMILES
≥ 20 | > 200 | A (EC1.5<1.0 μM) | – | Cc1csc(NC(=O)N2CCCc3ccc(-c4cccc(C(F)(F)F)c4)nc32)n1 [Compound 588]
≥ 20 | > 200 | A (EC1.5<1.0 μM) | – | Cc1cc(NC(=O)N2CCOc3ccc(-c4cccc(N5CCCC5)c4)nc32)cc(C)n1 [Compound 618]
< 20 | > 200 | A (EC1.5<1.0 μM) | – | Cc1cc(NC(=O)N2CC(C)(C)Oc3ccc(-c4cccc(N(C)C)c4)nc32)cc(C)n1 [Compound 597]
< 20 | > 200 | A (EC1.5<1.0 μM) | – | Cc1cncc(NC(=O)N2CC(C)(C)Oc3ccc(-c4cccc(Cl)c4)nc32)c1 [Compound 600]
< 20 | > 200 | A (EC1.5<1.0 μM) | – | O=C(Nc1cncc(OCC(O)CO)n1)N1CCOc2ccc(-c3cccc(C(F)(F)F)c3)nc21 (stereo not shown) [Compound 696, N-(6-(2,3-dihydroxypropoxy)pyrazin-2-yl)-6-(3-(trifluoromethyl)phenyl)-2H-pyrido[3,2-b][1,4]oxazine-4(3H)-carboxamide]
≥ 20 | > 200 | A (EC1.5<1.0 μM) | – | CC1(C)CN(C(=O)Nc2cncc(F)c2)c2nc(-c3cccc(N4CCCC4)c3)ccc2O1 [Compound 604]
≥ 20 | – | A (EC1.5<1.0 μM) | – | O=C(Nc1cncc(F)c1)N1CCCc2ccc(-c3cccc(F)c3)nc21 [Compound 594]
< 20 | > 200 | A (EC1.5<1.0 μM) | – | Cc1cc(NC(=O)N2CCCc3ccc(-c4cccc(F)c4)nc32)cc(C)n1 [Compound 595]
< 20 | > 200 | A (EC1.5<1.0 μM) | – | Cc1cncc(NC(=O)N2CCCc3ccc(-c4cccc(F)c4)nc32)c1 [Compound 590]
≥ 20 | > 200 | A (EC1.5<1.0 μM) | – | Cc1cncc(NC(=O)N2CCCc3ccc(-c4cccc(Cl)c4)nc32)c1 [Compound 599]
< 20 | > 200 | A (EC1.5<1.0 μM) | – | CN1CCN(C(=O)Nc2ccnc(N3CCC3)c2)c2nc(-c3cccc(C(F)(F)F)c3)ccc21 [Compound 538]
≥ 20 | > 200 | A (EC1.5<1.0 μM) | – | Cc1cc(C)nc(NC(=O)N2CCOc3c(C)cc(-c4cccc(Cl)c4)nc32)c1 [Compound 690]
≥ 20 | ≤ 200 | B (EC1.5 1-25 μM) | – | Cc1cc(NC(=O)N2CCN(C)c3ccc(-c4cccc(C(F)(F)F)c4)nc32)cc(C)n1 [Compound 532]
≥ 20 | > 200 | A (EC1.5<1.0 μM) | – | Cc1cncc(NC(=O)N2CC(C)(C)Oc3ccc(-c4cccc(N(C)C)c4)nc32)c1 [Compound 593]
≥ 20 | > 200 | A (EC1.5<1.0 μM) | – | Cc1cc(NC(=O)N2CC(C)(C)Oc3ccc(-c4cccc(N5CC[C@H](F)C5)c4)nc32)cc(C)n1 [Compound 658]
≥ 20 | > 200 | A (EC1.5<1.0 μM) | – | Cc1cncc(NC(=O)N2CCOc3c(C)cc(-c4cccc(Cl)c4)nc32)c1 [Compound 688]
≥ 20 | > 200 | A (EC1.5<1.0 μM) | – | Cc1cc(-c2cccc(C(F)(F)F)c2)nc2c1OCCN2C(=O)Nc1ccncc1F [Compound 663]
< 20 | > 200 | A (EC1.5<1.0 μM) | – | Cc1cc(NC(=O)N2CCCOc3ccc(-c4cccc(N5CCCC5)c4)nc32)cc(C)n1 [Compound 615]
< 20 | > 200 | A (EC1.5<1.0 μM) | – | O=C(Nc1cncc(OCC(O)CO)n1)N1CCCc2ccc(-c3cccc(C(F)(F)F)c3)nc21 (stereo not shown) [Compound 638]
≥ 20 | > 200 | A (EC1.5<1.0 μM) | – | CC1(C)CN(C(=O)Nc2cncc(F)c2)c2nc(-c3cccc(N4CC[C@H](F)C4)c3)ccc2O1 [Compound 661]
– | > 200 | – | 1 to 25 | O=C(Nc1ccncc1F)N1CCCOc2ccc(-c3cccc(Cl)c3)nc21 [Compound 769]
